Each block holds one molecule with its values, some of them ahead of it.
How the values were obtained:
[1] = biological target: T1, S5AR enzyme derived from LNCaP cells (Homo sapiens, UniProt P18405); experiment: S5AR inhibition assay (DHT production quantified by LC-MS); assay type: biochemical; details: read-out: S5AR percentage inhibition
T1 sequence (P18405 1-259): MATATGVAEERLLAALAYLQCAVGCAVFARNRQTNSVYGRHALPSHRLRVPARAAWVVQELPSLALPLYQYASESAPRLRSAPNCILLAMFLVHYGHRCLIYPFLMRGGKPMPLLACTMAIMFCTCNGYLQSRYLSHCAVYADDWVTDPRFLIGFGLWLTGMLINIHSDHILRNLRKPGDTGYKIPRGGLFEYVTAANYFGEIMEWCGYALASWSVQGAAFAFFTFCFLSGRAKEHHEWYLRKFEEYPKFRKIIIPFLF

[2] = biological target: T1, S5AR enzyme derived from LNCaP cells; details: taken from previous publication; read-out: S5AR Inhibitory Activity (IC50); cited from earlier work

inhibition at 300 µM ([1]; final concentration of 300 µM): 41.4%
Structure (SMILES): CC1=C(CC[C@@H](C)CC(=O)O)[C@@]2(C)CCCC(C)(C)C2CC1=O (stereo partly drawn) [Compound 2, 7-Oxo-8-labden-15-oic acid]

Structure (SMILES): COc1cc(/C=C/C(=O)CC(=O)/C=C/c2ccc(O)c(OC)c2)ccc1O [Curcumin]
inhibition at 50 µg/mL [1]: 92.73 ± 0.14%

Structure (SMILES): CC(C)(C)NC(=O)[C@H]1CC[C@H]2[C@@H]3CC[C@H]4NC(=O)C=C[C@]4(C)[C@H]3CC[C@]12C [Finasteride]
IC50 [2]: 760 ± 30 nM

Reference: paper PMC12300835, “Geographic Influence and Metabolomics-Driven Discovery of 5-Alpha Reductase Inhibitors in Tectona grandis L.f. (Teak) Leaves” (Molecules, 2025)
